Experimental data taken from patent US20080009418A1, “Selective Inhibitors” (Alchemia LTD., priority 2004, published 2008).

How the values were obtained:
[1] = molecular target: T1, Human neurokinin (NK1) (Homo sapiens, UniProt P25103); assay: Radioligand binding, human neurokinin NK1 membranes, filtration, [125I]-Substance P; details: compound at 10 μM; human neurokinin NK1 membranes
T1 construct: purchased Perkin Elmer Biosignal
Summary of the method: (§1)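 Filtration binding on cloned human receptor membranes (1 Unit/well), [125I]-Substance P for NK1 and [3H]-Diprenorphine for KOP, 1 h at room temperature. Filters PEI-presoaked, washed with cold 50 mM Tris-HCl pH 7.4, counted by scintillation; percent inhibition calculated, reference ligand defining non-specific binding.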

[2] = molecular target: T2, Human Melanocortin (MC4) (Homo sapiens, UniProt P32245); assay: Radioligand binding, human melanocortin MC4 membranes, FlashPlate, [125I]-NDP-αMSH; details: compound at 10 μM; human melanocortin MC4 membranes
T2 construct: purchased Perkin Elmer Biosignal
Summary of the method: (§2)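 Cloned human receptor membranes were coated onto FlashPlate wells and incubated with radioligand and compound (added from a 0.5 mM DMSO daughter plate) for 1 hour at room temperature in the dark. Scintillation counting gave percent inhibition, with DMSO defining total and reference ligand defining non-specific binding.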

[3] = molecular target: T3, Human δ-opioid (DOP) (Homo sapiens, UniProt P41143); assay: Radioligand binding, human δ-opioid (DOP) membranes, FlashPlate, [3H]-Bremazocine; details: compound at 10 μM; human δ-opioid (DOP) membranes
T3 construct: purchased Perkin Elmer Biosignal
Summary of the method: as §2

[4] = molecular target: T4, Mouse urotensin (mUR2) (Mus musculus, UniProt Q8VIH9); assay: Radioligand binding, mouse urotensin mUR2 membranes, FlashPlate, [125I]-Urotensin II; details: compound at 10 μM; mouse urotensin mUR2 membranes
T4 construct: purchased Perkin Elmer Biosignal
T4 sequence (Q8VIH9 1-385): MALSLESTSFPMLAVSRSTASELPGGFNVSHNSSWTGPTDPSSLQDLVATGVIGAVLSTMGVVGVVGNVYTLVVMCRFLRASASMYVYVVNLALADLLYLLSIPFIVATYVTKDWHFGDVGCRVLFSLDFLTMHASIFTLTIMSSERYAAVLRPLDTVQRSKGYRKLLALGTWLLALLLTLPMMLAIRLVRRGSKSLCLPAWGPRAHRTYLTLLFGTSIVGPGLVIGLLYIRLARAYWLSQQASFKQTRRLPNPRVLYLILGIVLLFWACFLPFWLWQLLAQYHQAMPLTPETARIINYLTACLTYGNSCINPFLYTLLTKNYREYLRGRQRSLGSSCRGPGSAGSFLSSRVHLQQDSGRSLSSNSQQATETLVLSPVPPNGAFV
Summary of the method: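 Cloned mouse urotensin (mUR2) receptor membranes from Perkin Elmer Biosignal were immobilized in FlashPlate microplates using a proprietary coating. Each well got 19.5 μl buffer, then 0.5 μl of DMSO, reference ligand, or compound. Adding 5 μl of [125I]-Urotensin II, diluted to 5× final concentration in binding buffer, started binding. Plates were sealed with TopSeal-A and incubated 1 hour at room temperature in the dark. Wells were counted for 30 seconds each on a TopCount after a 60-second delay, and percentage inhibition was calculated.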

[5] = molecular target: T5, Human melanocortin (MC5) (Homo sapiens, UniProt P33032); assay: Radioligand binding, human melanocortin MC5 membranes, FlashPlate, [125I]-NDP-αMSH; details: compound at 10 μM; human melanocortin MC5 membranes
T5 construct: purchased Perkin Elmer Biosignal
Summary of the method: as §2

[6] = molecular target: T6, Human melanin-concentrating hormone (MCH1) (Homo sapiens, UniProt Q99705); assay: Radioligand binding, human melanin-concentrating hormone MCH1 membranes, FlashPlate, [125I]-S36057; details: compound at 10 μM; human MCH1 membranes
T6 construct: purchased Perkin Elmer Biosignal
Summary of the method: as §2

[7] = molecular target: T7, Human neuropeptide Y (NPY-Y1) (Homo sapiens, UniProt P25929); assay: Radioligand binding, human neuropeptide Y NPY-Y1 membranes, FlashPlate, [125I]-PYY; details: compound at 10 μM; human NPY-Y1 membranes
T7 construct: purchased Perkin Elmer Biosignal
T7 sequence (P25929 1-384): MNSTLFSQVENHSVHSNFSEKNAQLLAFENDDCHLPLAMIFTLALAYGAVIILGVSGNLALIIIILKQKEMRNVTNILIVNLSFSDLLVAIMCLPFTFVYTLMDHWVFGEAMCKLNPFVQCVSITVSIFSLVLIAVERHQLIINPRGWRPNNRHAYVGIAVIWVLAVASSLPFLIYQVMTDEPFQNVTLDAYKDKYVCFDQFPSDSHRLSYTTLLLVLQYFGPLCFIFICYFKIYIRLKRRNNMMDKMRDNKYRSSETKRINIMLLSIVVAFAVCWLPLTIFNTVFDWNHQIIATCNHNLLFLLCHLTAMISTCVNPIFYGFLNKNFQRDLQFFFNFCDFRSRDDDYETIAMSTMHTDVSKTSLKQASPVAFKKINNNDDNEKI
Summary of the method: as §2

[8] = molecular target: T8, Human μ-opioid (MOP) (Homo sapiens, UniProt P35372); assay: Radioligand binding, human μ-opioid (MOP) membranes, FlashPlate, [3H]-Naloxone; details: compound at 10 μM; human μ-opioid (MOP) membranes
T8 construct: purchased Perkin Elmer Biosignal
Summary of the method: as §2

[9] = molecular target: T9, Human opioid (ORL1) (Homo sapiens, UniProt P41146); assay: Radioligand binding, human opioid ORL1 membranes, FlashPlate, [125I]-Nociceptin; details: compound at 10 μM; human ORL1 membranes
T9 construct: purchased Perkin Elmer Biosignal
Summary of the method: as §2

[10] = molecular target: T10, Human Melanocortin (MC3) (Homo sapiens, UniProt P41968); assay: Radioligand binding, human melanocortin MC3 membranes, FlashPlate, [125I]-NDP-αMSH; details: compound at 10 μM; human melanocortin MC3 membranes
T10 construct: purchased Perkin Elmer Biosignal
Summary of the method: as §2

[11] = molecular target: T11, Human κ-Opioid (KOP) (Homo sapiens, UniProt P41145); assay: Radioligand binding, human κ-opioid (KOP) membranes, filtration, [3H]-Diprenorphine; details: compound at 10 μM; human κ-opioid (KOP) membranes
T11 construct: purchased Perkin Elmer Biosignal
Summary of the method: as §1

T1 sequence (P25103 whole entry): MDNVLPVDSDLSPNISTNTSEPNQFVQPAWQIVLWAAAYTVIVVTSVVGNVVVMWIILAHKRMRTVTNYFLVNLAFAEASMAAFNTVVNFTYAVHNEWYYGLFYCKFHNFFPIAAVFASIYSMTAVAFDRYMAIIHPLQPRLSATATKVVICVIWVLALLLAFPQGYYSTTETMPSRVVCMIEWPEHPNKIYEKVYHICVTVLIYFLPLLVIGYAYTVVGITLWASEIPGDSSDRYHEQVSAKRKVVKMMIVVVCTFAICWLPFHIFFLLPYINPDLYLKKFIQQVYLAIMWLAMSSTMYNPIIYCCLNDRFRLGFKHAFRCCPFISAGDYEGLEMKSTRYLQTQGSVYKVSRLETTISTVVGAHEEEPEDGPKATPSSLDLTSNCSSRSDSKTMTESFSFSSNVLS
T11 sequence (P41145 whole entry): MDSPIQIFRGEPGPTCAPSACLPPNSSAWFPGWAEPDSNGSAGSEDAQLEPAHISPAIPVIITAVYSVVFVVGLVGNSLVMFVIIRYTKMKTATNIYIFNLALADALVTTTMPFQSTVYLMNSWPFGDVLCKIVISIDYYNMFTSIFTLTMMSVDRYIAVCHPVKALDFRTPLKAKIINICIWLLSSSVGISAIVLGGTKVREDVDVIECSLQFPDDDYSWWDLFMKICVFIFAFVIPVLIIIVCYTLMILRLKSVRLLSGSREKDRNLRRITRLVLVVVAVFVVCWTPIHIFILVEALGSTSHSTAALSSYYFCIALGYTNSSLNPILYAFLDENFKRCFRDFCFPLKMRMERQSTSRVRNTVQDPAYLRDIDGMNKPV
T9 sequence (P41146 whole entry): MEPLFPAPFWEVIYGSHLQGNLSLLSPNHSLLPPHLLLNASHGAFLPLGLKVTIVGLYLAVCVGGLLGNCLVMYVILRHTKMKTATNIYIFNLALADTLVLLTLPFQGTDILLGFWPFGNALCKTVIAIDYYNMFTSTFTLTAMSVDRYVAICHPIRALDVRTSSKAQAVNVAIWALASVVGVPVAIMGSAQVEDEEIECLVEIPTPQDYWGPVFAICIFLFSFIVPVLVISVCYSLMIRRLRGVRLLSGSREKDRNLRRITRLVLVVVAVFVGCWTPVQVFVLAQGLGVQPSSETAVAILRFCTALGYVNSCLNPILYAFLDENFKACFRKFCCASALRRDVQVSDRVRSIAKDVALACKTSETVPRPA
T3 sequence (P41143 whole entry): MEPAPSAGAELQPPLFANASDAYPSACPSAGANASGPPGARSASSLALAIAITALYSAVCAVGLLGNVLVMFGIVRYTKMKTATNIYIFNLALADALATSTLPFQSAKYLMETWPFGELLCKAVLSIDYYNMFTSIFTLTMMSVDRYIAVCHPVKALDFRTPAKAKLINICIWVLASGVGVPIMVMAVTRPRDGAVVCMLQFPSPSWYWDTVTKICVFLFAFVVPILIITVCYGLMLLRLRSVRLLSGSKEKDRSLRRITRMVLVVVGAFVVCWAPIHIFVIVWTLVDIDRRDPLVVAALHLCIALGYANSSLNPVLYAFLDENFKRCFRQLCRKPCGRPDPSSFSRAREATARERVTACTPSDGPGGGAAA
T6 sequence (Q99705 whole entry): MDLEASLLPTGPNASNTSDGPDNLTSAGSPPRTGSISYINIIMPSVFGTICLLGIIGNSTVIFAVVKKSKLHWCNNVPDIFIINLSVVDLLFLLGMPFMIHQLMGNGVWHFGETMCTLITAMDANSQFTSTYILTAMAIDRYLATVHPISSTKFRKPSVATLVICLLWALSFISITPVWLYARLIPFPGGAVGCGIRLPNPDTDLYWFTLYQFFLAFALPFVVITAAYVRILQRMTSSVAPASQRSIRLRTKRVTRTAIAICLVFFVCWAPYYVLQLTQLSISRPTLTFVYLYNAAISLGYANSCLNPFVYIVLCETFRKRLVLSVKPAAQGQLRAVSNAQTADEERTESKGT
T8 sequence (P35372 whole entry): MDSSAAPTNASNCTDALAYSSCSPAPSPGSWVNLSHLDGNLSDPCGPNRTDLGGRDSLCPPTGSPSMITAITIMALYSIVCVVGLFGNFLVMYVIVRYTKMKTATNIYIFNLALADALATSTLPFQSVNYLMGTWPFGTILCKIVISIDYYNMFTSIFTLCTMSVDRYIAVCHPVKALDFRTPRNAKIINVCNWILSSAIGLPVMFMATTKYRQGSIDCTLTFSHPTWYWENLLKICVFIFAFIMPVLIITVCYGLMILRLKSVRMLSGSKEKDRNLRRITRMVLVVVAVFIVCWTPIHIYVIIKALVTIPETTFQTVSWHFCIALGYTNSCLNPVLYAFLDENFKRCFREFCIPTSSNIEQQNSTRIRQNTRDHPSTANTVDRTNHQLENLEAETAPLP
T5 sequence (P33032 whole entry): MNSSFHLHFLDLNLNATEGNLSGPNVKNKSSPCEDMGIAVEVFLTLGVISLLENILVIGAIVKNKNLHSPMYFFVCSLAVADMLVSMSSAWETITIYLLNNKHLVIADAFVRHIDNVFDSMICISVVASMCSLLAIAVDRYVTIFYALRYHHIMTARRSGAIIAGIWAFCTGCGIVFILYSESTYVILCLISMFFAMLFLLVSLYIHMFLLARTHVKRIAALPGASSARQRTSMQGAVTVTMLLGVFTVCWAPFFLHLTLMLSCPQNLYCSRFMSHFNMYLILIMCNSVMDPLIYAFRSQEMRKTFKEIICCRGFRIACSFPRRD
T10 sequence (P41968 whole entry): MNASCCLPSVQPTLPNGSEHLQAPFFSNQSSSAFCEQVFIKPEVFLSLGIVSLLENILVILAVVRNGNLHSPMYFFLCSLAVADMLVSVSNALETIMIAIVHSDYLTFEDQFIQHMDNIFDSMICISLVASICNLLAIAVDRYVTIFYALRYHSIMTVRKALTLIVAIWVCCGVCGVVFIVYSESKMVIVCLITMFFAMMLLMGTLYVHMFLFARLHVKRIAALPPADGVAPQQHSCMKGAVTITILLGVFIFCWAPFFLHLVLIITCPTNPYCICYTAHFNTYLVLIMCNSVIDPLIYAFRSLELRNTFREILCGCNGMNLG
T2 sequence (P32245 whole entry): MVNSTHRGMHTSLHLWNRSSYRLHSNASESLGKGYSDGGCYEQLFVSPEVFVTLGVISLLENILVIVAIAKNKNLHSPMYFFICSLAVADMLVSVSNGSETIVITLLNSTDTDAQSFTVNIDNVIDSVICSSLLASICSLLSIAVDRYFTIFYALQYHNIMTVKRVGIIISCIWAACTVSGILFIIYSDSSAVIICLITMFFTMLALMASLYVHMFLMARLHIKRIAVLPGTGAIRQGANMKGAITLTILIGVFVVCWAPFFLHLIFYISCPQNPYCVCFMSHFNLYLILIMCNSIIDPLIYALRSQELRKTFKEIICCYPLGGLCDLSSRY

SMILES	A8 radioligand binding inhibition [1]	A4 radioligand binding inhibition [2]	A1 radioligand binding inhibition [3]	A11 radioligand binding inhibition [4]	A5 radioligand binding inhibition [5]	A6 radioligand binding inhibition [6]	A9 radioligand binding inhibition [7]	A7 radioligand binding inhibition [8]	A10 radioligand binding inhibition [9]	A3 radioligand binding inhibition [10]	A2 radioligand binding inhibition [11]
CO[C@H]1[C@H](O)[C@@H](COCc2ccc(-c3ccccc3)cc2)OC(OCc2ccccc2)[C@@H]1NC(=O)CCNC(=N)N (stereo partly drawn) [compound 83]	+ (“+” indicates greater than 50% inhibition at 10 μM)	− (“−” indicates less than 50% inhibition at 10 μM)	− (“−” indicates less than 50% inhibition at 10 μM)	− (“−” indicates less than 50% inhibition at 10 μM)	+ (“+” indicates greater than 50% inhibition at 10 μM)	− (“−” indicates less than 50% inhibition at 10 μM)	− (“−” indicates less than 50% inhibition at 10 μM)	+ (“+” indicates greater than 50% inhibition at 10 μM)	− (“−” indicates less than 50% inhibition at 10 μM)	− (“−” indicates less than 50% inhibition at 10 μM)	− (“−” indicates less than 50% inhibition at 10 μM)
CO[C@H]1[C@H](O)[C@@H](COCc2ccc(-c3ccccc3)cc2)OC(OCc2ccccc2)[C@@H]1NC(=O)CCCN (stereo partly drawn) [compound 84]	+ (“+” indicates greater than 50% inhibition at 10 μM)	− (“−” indicates less than 50% inhibition at 10 μM)	− (“−” indicates less than 50% inhibition at 10 μM)	− (“−” indicates less than 50% inhibition at 10 μM)	− (“−” indicates less than 50% inhibition at 10 μM)	− (“−” indicates less than 50% inhibition at 10 μM)	− (“−” indicates less than 50% inhibition at 10 μM)	− (“−” indicates less than 50% inhibition at 10 μM)	− (“−” indicates less than 50% inhibition at 10 μM)	− (“−” indicates less than 50% inhibition at 10 μM)	− (“−” indicates less than 50% inhibition at 10 μM)
CO[C@H]1[C@H](O)[C@@H](COCc2ccc(-c3ccccc3)cc2)OC(OCc2ccccc2)[C@@H]1NC(=O)CCCNC(=N)N (stereo partly drawn) [compound 85]	+ (“+” indicates greater than 50% inhibition at 10 μM)	+ (“+” indicates greater than 50% inhibition at 10 μM)	− (“−” indicates less than 50% inhibition at 10 μM)	− (“−” indicates less than 50% inhibition at 10 μM)	+ (“+” indicates greater than 50% inhibition at 10 μM)	+ (“+” indicates greater than 50% inhibition at 10 μM)	− (“−” indicates less than 50% inhibition at 10 μM)	+ (“+” indicates greater than 50% inhibition at 10 μM)	+ (“+” indicates greater than 50% inhibition at 10 μM)	+ (“+” indicates greater than 50% inhibition at 10 μM)	− (“−” indicates less than 50% inhibition at 10 μM)
